{"source": "paper PMC3705412", "about": "“PTP1B Inhibitory and Anti-Inflammatory Effects of Secondary Metabolites Isolated from the Marine-Derived Fungus Penicillium sp. JF-55” (Marine Drugs, 2013)", "format_in_all_cases": "cell-based, murine (C57BL/6 mice)", "key": {"[1]": {"test_system": "TNF-α production in murine peritoneal macrophages", "assay": "TNF-α production in LPS-stimulated macrophages, ELISA", "conditions": "Mus musculus, Peritoneal macrophage; pre-treated 12 h, LPS 1 μg/mL 18 h", "description": "(§1) C57BL/6 mice were purchased from Orient Bio Co. (Sungnam, Kyung-Kido, Korea). TG-elicited peritoneal macrophages were harvested four days after intraperitoneal (i.p.) injection of 3 mL of TG [37]. Peritoneal lavage was performed using 8 mL of Hanks’ Balanced Salt Solution containing 10 U/mL heparin. The cells were distributed in Roswell Park Memorial Institute medium (RPMI) supplemented with 10% heat-inactivated FBS, in 6-well tissue culture plates (5 × 10^6 cells/mL). The level of PGE2, TNF-α or IL-1β present in each sample was determined using a commercially available kit from R & D Systems. The assay was performed according to the manufacturer’s instructions. Briefly, murine peritoneal macrophages were cultured in 24-well plates, pre-incubated for 12 h with different concentrations of compounds 1–3, and then stimulated for 18 h with LPS. The cell culture supernatants were then immediately collected after treatment and centrifuged at 13,000× g for 2 min to remove particulate matter. The medium was added to a 96-well plate pre-coated with affinity-purified PGE2-specific polyclonal antibodies or the medium was added to a 96-well plate pre-coated with affinity-purified polyclonal antibodies that were specific to mouse TNF-α or IL-1β. An enzyme-linked polyclonal antibody specific for PGE2, mouse TNF-α or IL-1β was added to the wells for 20 h, followed by a final wash to remove any unbound antibody-enzyme reagent. A substrate solution was added, and the intensity of the color produced, which was measured at 450 nm (the correction wavelength was set at 540 nm or 570 nm), was proportional to the amount of PGE2, TNF-α or IL-1β present."}, "[2]": {"test_system": "IL-1β production in murine peritoneal macrophages", "assay": "IL-1β production in LPS-stimulated macrophages, ELISA", "conditions": "Mus musculus, Peritoneal macrophage; pre-treated 12 h, LPS 1 μg/mL 18 h", "description": "as §1"}, "[3]": {"test_system": "anti-oxidant response element (ARE)", "assay": "ARE-luciferase activation in macrophages", "conditions": "1 h, 5% FBS", "description": "Figure 7 The effects of penstyrylpyrone (1) on the nuclear translocation of Nrf2 (A) and anti-oxidant response element (ARE) activation (B) in murine peritoneal macrophages. Murine peritoneal macrophages were treated with 40 μM of penstyrylpyrone (1) for 15, 30, 60, 90 and 120 min. The nuclei were fractionated from the cytosol using PER-Mammalian Protein Extraction buffer. Nrf2 protein was detected using Western blotting analysis and representative blots of three independent experiments are shown. Quiescent cells transiently transfected with ARE-luciferase or control vector were incubated for 1 h with indicated concentrations of latifolin in the presence of 5% FBS. Cell lysates were assayed for luciferase activity and depicted by fold induction by normalizing the transfection efficiency and dividing the values of each experiment relative to the control. * p < 0.05 compared to the control group."}, "HO-1": {"test_system": "HO-1", "assay": "Western blotting of HO-1 protein expression in macrophages", "description": "Figure 6 The effects of penstyrylpyrone (1) on the protein expression of HO-1 in murine peritoneal macrophages. Murine peritoneal macrophages were incubated for 12 h with the indicated concentrations of penstyrylpyrone (1). […] Representative blots of three independent experiments are shown. The data represent the mean ± SD of three experiments. * p < 0.05 compared with the control group.\nC57BL/6 mice were purchased from Orient Bio Co. (Sungnam, Kyung-Kido, Korea). TG-elicited peritoneal macrophages were harvested four days after intraperitoneal (i.p.) injection of 3 mL of TG [37]. Peritoneal lavage was performed using 8 mL of Hanks’ Balanced Salt Solution containing 10 U/mL heparin. The cells were distributed in Roswell Park Memorial Institute medium (RPMI) supplemented with 10% heat-inactivated FBS, in 6-well tissue culture plates (5 × 10^6 cells/mL).\nWestern blotting analysis was performed by lysing the cells in 20 mM Tris-HCl buffer (pH 7.4) containing a protease inhibitor mixture (0.1 mM PMSF, 5 mg/mL aprotinin, 5 mg/mL pepstatin A, and 1 mg/mL chymostatin). The protein concentration was determined using a Lowry protein assay kit (P5626; Sigma Chemical Co., St. Louis, MO, USA). An equal amount of protein for each sample was resolved using 12% sodium dodecyl sulfate-polyacrylamide gel electrophoresis (SDS-PAGE) and then electrophoretically transferred onto a Hybond enhanced chemiluminescence (ECL) nitrocellulose membrane (Bio-Rad, Hercules, CA, USA). The membrane was blocked with 5% skimmed milk and sequentially incubated with primary antibody (Santa Cruz Biotechnology, Santa Cruz, CA, USA) and horseradish peroxidase-conjugated secondary antibody followed by ECL detection (Amersham Pharmacia Biotech, Piscataway, NJ, USA)."}}}
{"smiles": "COc1cc(/C=C/c2ccccc2)oc(=O)c1C", "note": "[Penstyrylpyrone (1), penstyrylpyrone]", "values": [{"measurement": "IC50", "setting": "[1]", "value": 18.3, "unit": "µM"}, {"measurement": "IC50", "setting": "[2]", "value": 13.5, "unit": "µM"}, {"measurement": "ARE activation (luciferase)", "setting": "[3]", "value": "gradually increased in a dose-dependent manner"}, {"measurement": "Time at which HO-1 protein expression began to increase", "setting": "HO-1; 40 μM", "value": 6, "unit": "h"}, {"measurement": "Time of maximum level of HO-1 protein expression", "setting": "HO-1; 40 μM", "value": 18, "unit": "h"}, {"measurement": "HO-1 protein expression", "setting": "HO-1; 5–40 μM for 12 h", "value": "concentration-dependent increase"}, {"measurement": "Concentration giving a considerable increase in HO-1 expression", "setting": "HO-1; 12 h", "value": "above 10 μM"}]}
